Data as given in patent EP0336230B1, “Cyclic peptide antagonists of Substance P and Substance K” (FUJISAWA PHARMACEUTICAL CO., LTD., priority 1988, dated 1989).
Numbered stars: 1 amine (or outer) side, 2 acyl side, 3 side chain; on linkers, the order of the positions; unused ones are H or OH. Bridge positions count the residues as written; N and C are the ends. Square brackets hold non-standard residues; d marks the D form. Peptide text beside a SMILES is read from it. * marks the point of attachment. Cinnamoyl(2-(1Z-pentenyl)) = CCC/C=C\c1ccccc1/C=C/C(=O)*; X3 = CC(=O)Oc1ccc(/C=C(\C(=O)[*:2])N(C)[*:1])cc1; X1 = CN(/C(=C/c1ccc(O)cc1)C(=O)[*:2])[*:1]; aThr = C[C@H](O)[C@H](N)C(=O)O; X2 = CCCCCc1ccccc1CCC(=O)*

Tests used:
[1] = biological target: T1, specific [^3H] substance P binding to guinea pig lung membranes (Cavia porcellus, UniProt P30547); test: ^3H-substance P binding to preparative membranes (guinea pig lung); conditions: ^3H-Substance P 1nM, 4°C, 30 minutes, read-out: IC50 (M), displacement of specific [^3H] substance P binding
T1 construct: from tissue; host or cells: guinea pig trachea and lung, crude membrane fraction
T1 sequence (P30547 whole entry): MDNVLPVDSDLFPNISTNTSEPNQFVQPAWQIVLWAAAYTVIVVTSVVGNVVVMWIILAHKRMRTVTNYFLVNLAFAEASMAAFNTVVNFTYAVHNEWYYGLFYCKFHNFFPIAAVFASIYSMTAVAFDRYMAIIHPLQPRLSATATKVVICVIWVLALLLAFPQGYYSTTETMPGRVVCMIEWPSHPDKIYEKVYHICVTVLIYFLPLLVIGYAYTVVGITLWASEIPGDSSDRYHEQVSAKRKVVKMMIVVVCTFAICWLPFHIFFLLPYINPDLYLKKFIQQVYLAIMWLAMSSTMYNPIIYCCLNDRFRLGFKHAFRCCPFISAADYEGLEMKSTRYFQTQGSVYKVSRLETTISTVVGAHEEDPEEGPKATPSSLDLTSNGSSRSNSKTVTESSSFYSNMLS
Description: (a) Crude membrane preparation
Male albino Hartley strain guinea pigs (600 g) were sacrificed by decapitation. The trachea and lungs were removed, and stored at -80°C until use. These tissues (150 g) were thawed and homogenized in 500 ml buffer (0.25 M sucrose, 50 mM Tris-HCℓ pH 7.5, 0.1 mM EDTA) with a compact mixer (Matsuden MJ-761). The tissue was homogenized with a Ultra-Disperser (Yamato MODEL LK-21) at a setting of maximum range for 10-s at 10-s intervals with cooling between homogenizations (total homogenization's time : 60 seconds). The homogenate was centrifuged (900 x g for 10 min.) to remove tissue clumps and the supernatant centrifuged at 14000 x g for 20 min. to yield pellets which were referred to as crude membrane fractions. The pellets were resuspended in Medium I, homogenized with a teflon homogenizer and centrifuged at 14000 x g for 20 min. The pellets were stored at -20°C.
(b) ^3H-substance P binding to preparative membranes
^3H-Substance P (1nM, New England Nuclear) was incubated with 50 µℓ of the membrane preparation in medium I at 4°C for 30 minutes in a final volume of 250 µℓ. […] The radioactivity was counted in 3 ml of Aquazol-2 in Packard sintillation counter (Packard TRI-CARB 4530).

[2] = Solubility in solvents (physical and chemical properties); format: physicochemical
Description: The obtained product was triturated from diethyl ether to give triacetyl-WS-9326A (332 mg) as a colorless powder. Physical and chemical properties of the triacetyl-WS-9326A are as follows. […] (23)/(D) [formula] : -122° (C=1.0, MeOH) (6) Ultraviolet Absorption Spectrum : λ (MeOH)/(max) [formula] = 283 nm (ε=32,000) (7) Molecular Formula : C60H74N8O16 (8) Elemental Analysis : […]

`CCCCCc1ccccc1CCC(=O)N[C@@H]1C(=O)N(C)/C(=C/c2ccc(O)cc2)C(=O)N[C@@H](CC(C)C)C(=O)N[C@H](Cc2ccccc2)C(=O)N[C@@H]([C@H](C)O)C(=O)N[C@@H](CC(N)=O)C(=O)N[C@@H](CO)C(=O)O[C@@H]1C` [Tetrahydro-WS-9326A] (X2-T[X1]L[dF][aThr]NS; ester 1-C) gave an IC50 [1] of 4.2e-07 M.
In the case of `CCC/C=C\c1ccccc1/C=C/C(=O)N[C@@H]1C(=O)N(C)/C(=C/c2ccc(OC(C)=O)cc2)C(=O)N[C@@H](CC(C)C)C(=O)N[C@H](Cc2ccccc2)C(=O)N[C@@H]([C@H](C)OC(C)=O)C(=O)N[C@@H](CC(N)=O)C(=O)N[C@@H](COC(C)=O)C(=O)O[C@@H]1C` [triacetyl-WS-9326A] ({Cinnamoyl(2-(1Z-pentenyl))}-T[X3]L[dF][aThr](Ac)NS(Ac); ester 1-C), the Solubility ([2]; chloroform) was “Sparingly Soluble”, the Solubility ([2]; diethyl ether) was “Sparingly Soluble” and the Solubility ([2]; dimethyl sulfoxide) was “Soluble”. The Solubility ([2]; methanol) was “Soluble” and the Solubility ([2]; n-hexane) was “Insoluble”.
